Test results taken from ChEMBL document CHEMBL2390838, “Structure-based identification of ureas as novel nicotinamide phosphoribosyltransferase (Nampt) inhibitors” (J Med Chem, 2013).

Key:
Format in all cases: ADME, organism-based
[1] = Oral bioavailability in BALB/c mouse at 5 mg/kg; conditions: in vivo
[2] = AUC(infinity) in BALB/c mouse at 1 mg/kg, iv; design: time infinity, dose 1 mg/kg, route intravenous; conditions: plasma
[3] = AUC(infinity) in BALB/c mouse at 5 mg/kg, po; design: time infinity, dose 5 mg/kg, route oral; conditions: plasma
[4] = Volume of distribution at steady state in BALB/c mouse at 1 mg/kg, iv; design: dose 1 mg/kg, route intravenous; conditions: in vivo, read-out: Vdss
[5] = Cmax in BALB/c mouse at 5 mg/kg, po; design: dose 5 mg/kg, route oral; conditions: in vivo
[6] = Cmax in BALB/c mouse at 1 mg/kg, iv; design: dose 1 mg/kg, route intravenous; conditions: in vivo
[7] = Tmax in BALB/c mouse at 1 mg/kg, iv; design: dose 1 mg/kg, route intravenous; conditions: in vivo
[8] = Tmax in BALB/c mouse at 5 mg/kg, po; design: dose 5 mg/kg, route oral; conditions: in vivo

- bioavailability [1]: 26%
- AUC(0-inf) [2]: 0.92 µM·h
- AUC(0-inf) [3]: 1.4 µM·h
- Vd [4]: 1.1 L/kg
- Cmax [5]: 1100 nM
- Cmax [6]: 2700 nM
- Tmax [7]: 4.8 min
- Tmax [8]: 30 min
SMILES: O=C(NCc1cccnc1)Nc1ccc(S(=O)(=O)N2CC3CCC(C2)O3)cc1
